For one test, the target named is Histone deacetylase 2 (Homo sapiens, UniProt Q92769). Kind of test: Inhibition of recombinant His-tagged HDAC2 (1 to 488) (unknown origin) using MAL as substrate incubated for 3 hrs prior to substrate addition measured after 60 mins by fluorescence plate reader analysis.
Test [1] has as its target T1, Protein deacetylase HDAC6 (Homo sapiens, UniProt Q9UBN7).
T1 sequence (Q9UBN7 whole entry): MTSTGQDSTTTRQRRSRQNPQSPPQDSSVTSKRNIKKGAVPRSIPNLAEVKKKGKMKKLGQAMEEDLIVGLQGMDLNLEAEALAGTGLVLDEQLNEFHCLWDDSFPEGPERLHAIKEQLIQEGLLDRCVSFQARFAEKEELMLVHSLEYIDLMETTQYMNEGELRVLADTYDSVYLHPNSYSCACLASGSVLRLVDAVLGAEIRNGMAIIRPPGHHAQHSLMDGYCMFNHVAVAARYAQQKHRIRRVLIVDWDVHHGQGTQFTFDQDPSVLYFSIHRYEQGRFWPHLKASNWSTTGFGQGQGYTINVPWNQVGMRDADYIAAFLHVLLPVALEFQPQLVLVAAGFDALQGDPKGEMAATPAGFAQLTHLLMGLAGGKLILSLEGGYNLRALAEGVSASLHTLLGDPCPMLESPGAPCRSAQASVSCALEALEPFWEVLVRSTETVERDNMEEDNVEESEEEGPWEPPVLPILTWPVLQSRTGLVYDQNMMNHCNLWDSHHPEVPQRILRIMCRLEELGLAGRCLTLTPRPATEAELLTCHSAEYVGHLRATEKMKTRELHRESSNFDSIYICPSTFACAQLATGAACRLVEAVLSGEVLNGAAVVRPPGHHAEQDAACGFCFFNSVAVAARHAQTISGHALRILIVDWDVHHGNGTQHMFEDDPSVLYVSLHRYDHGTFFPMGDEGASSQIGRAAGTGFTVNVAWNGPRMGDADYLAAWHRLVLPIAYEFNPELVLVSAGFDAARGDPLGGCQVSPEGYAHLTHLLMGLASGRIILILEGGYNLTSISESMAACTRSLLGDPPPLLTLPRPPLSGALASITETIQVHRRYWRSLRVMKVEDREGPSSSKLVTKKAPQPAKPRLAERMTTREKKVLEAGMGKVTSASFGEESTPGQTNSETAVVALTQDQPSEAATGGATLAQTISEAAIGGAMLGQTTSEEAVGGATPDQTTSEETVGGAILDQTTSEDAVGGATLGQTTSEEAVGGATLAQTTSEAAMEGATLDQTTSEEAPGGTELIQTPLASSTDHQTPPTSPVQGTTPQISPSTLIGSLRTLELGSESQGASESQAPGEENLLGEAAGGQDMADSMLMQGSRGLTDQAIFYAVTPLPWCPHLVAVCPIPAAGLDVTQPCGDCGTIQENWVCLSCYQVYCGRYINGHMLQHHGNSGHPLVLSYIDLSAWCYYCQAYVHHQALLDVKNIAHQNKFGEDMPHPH
The experiment in a line: Inhibition of recombinant His-tagged HDAC6 (unknown origin) using Fluor-de-Lys SIRT1 as substrate incubated for 3 hrs prior to substrate addition measured after 60 mins by fluorescence plate reader analysis.

The target in test [2] is Histone deacetylase 3/NCoR1 (Homo sapiens, UniProt O15379). The experiment in a line: Inhibition of recombinant HDAC3-NCoR1 (unknown origin) using MAL as substrate incubated for 3 hrs prior to substrate addition measured after 60 mins by fluorescence plate reader analysis. It counts as protein-complex assay.
The next test deals with T2, Histone deacetylase 8 (Homo sapiens, UniProt Q9BY41).
T2 sequence (Q9BY41 whole entry): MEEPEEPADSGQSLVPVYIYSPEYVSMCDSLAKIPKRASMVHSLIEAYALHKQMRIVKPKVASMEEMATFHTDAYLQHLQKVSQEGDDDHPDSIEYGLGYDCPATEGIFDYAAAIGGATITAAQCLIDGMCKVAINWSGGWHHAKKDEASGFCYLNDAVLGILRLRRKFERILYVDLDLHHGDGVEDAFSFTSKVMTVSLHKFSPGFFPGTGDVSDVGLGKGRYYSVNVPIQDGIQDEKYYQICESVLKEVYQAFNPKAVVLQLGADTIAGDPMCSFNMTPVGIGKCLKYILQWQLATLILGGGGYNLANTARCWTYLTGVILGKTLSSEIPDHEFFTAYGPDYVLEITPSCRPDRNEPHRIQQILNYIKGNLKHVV
The experiment in a line: Inhibition of recombinant HDAC8 (unknown origin) expressed in Escherichia coli BL21 using MAL as substrate incubated for 15 mins prior to substrate addition measured after 60 mins by fluorescence plate reader analysis.

The target of the next test is Histone deacetylase 1 (Homo sapiens, UniProt Q13547). The experiment in a line: Inhibition of recombinant C-terminal FLAG-tagged HDAC1 (unknown origin) expressed in Escherichia coli BL21 using MAL as substrate incubated for 1 hr prior to substrate addition measured after 60 mins by fluorescence plate reader analysis.
Another test relates to MCF7. Kind of test: Cytotoxicity against human MCF7 cells assessed as growth inhibition by measuring cellular ATP level after 72 hrs by cell-titer glo assay. The conditions noted are these: MCF7, 72 h. It is filed as functional, cell-based.
Another test has as its system HCT-116. The experiment in a line: Cytotoxicity against human HCT116 cells assessed as growth inhibition by measuring cellular ATP level after 72 hrs by cell-titer glo assay. It is filed as functional, cell-based. The settings on record: HCT-116, 72 h.
A further test deals with DU-145. The experiment in a line: Cytotoxicity against human DU145 cells assessed as growth inhibition by measuring cellular ATP level after 72 hrs by cell-titer glo assay. It is filed as functional, cell-based. The settings on record: DU-145, 72 h.
For another test, the system named is A549. Kind of test: Cytotoxicity against human A549 cells assessed as growth inhibition by measuring cellular ATP level after 72 hrs by cell-titer glo assay. The conditions noted are these: A549, 72 h. It is filed as functional, cell-based.

Bounds are passed on as bounds.

Chain of Histone deacetylase 3/NCoR1 (O15379 whole entry): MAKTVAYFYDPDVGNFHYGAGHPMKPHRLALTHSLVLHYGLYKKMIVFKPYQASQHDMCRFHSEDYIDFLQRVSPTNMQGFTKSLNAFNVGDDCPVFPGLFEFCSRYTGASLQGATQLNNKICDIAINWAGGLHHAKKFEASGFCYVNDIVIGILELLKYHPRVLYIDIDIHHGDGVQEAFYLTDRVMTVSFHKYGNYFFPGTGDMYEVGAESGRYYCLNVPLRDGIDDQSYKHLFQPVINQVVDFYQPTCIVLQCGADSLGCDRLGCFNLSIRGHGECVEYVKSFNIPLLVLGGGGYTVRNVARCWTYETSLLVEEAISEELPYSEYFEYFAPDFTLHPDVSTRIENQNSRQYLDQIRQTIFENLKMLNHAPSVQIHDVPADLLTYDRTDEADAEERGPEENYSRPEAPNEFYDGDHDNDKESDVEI
Chain of Histone deacetylase 3/NCoR1 (O75376 whole entry, further chain): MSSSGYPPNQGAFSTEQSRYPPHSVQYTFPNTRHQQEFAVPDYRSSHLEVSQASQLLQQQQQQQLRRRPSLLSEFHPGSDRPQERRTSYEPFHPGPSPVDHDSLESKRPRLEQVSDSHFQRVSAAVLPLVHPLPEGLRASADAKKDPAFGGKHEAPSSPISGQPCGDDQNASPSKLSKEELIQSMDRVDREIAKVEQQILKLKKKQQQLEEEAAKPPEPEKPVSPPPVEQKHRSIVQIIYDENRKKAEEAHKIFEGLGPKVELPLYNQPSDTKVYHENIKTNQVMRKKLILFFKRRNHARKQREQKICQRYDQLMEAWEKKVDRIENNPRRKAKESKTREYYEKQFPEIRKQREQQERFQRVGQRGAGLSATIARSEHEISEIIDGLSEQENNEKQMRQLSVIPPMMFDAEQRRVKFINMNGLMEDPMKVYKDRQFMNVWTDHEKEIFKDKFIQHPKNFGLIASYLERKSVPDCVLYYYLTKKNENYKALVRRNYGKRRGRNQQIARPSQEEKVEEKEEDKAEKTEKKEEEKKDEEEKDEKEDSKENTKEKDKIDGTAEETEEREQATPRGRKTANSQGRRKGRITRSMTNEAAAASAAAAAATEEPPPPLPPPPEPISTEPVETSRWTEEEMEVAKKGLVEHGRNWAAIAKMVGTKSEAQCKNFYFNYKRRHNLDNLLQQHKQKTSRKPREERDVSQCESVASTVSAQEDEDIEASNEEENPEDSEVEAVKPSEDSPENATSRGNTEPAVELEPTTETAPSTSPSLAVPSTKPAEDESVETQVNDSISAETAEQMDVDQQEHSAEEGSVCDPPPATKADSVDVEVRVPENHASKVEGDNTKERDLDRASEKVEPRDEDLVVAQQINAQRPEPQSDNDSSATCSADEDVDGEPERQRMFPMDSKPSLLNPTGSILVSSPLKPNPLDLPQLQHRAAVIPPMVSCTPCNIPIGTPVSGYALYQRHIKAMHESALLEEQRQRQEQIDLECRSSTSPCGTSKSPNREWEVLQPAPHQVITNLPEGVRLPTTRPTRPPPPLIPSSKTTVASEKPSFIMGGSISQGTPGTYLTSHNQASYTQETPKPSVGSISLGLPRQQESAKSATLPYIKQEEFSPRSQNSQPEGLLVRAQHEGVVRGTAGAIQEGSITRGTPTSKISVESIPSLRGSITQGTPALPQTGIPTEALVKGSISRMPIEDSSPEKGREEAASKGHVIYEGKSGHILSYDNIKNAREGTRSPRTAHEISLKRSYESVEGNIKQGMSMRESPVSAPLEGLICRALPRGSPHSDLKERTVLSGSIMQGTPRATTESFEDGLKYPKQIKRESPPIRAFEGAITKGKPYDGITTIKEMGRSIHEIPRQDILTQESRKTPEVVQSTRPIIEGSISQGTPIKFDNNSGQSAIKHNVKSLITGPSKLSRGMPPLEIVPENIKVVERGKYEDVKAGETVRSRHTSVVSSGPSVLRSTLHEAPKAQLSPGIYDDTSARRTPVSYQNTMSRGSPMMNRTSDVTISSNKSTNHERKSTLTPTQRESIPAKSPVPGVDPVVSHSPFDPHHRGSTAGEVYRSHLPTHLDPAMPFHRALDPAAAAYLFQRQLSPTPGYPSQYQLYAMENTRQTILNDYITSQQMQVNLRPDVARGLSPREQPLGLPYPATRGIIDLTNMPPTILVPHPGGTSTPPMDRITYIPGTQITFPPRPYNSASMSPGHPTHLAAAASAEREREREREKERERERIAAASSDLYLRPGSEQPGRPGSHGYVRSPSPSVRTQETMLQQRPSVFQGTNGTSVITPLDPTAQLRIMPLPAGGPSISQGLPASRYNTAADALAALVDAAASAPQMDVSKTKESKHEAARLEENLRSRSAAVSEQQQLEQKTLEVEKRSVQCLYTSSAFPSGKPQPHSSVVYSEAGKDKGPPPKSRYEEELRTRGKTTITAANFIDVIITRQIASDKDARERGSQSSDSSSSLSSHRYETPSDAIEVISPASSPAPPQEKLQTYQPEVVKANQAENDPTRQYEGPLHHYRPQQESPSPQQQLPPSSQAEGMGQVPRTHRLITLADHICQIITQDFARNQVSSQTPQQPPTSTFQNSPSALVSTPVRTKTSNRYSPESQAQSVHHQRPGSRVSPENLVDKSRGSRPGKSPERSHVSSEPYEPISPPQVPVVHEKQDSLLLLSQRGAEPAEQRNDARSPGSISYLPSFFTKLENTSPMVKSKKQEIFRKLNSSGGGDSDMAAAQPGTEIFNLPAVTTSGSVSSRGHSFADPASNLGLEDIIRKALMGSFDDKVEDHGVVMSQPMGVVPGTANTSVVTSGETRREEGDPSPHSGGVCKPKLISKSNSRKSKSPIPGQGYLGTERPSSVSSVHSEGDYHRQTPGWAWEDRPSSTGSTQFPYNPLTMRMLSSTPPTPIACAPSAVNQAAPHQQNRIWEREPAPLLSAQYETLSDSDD
Chain of Histone deacetylase 2 (Q92769 whole entry): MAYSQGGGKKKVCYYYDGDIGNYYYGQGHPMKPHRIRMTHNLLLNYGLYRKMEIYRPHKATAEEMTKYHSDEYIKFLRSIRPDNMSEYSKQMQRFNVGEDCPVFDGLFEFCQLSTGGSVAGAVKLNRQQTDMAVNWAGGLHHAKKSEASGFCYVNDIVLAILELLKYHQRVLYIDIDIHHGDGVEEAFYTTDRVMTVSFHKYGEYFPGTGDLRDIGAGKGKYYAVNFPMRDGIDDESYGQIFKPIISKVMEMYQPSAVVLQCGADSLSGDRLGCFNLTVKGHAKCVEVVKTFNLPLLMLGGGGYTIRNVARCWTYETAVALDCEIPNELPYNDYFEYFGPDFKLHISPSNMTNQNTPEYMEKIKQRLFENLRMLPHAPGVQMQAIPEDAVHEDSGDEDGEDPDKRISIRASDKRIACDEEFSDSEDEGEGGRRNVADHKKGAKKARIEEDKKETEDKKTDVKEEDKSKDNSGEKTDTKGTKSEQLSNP
Chain of Histone deacetylase 1 (Q13547 whole entry): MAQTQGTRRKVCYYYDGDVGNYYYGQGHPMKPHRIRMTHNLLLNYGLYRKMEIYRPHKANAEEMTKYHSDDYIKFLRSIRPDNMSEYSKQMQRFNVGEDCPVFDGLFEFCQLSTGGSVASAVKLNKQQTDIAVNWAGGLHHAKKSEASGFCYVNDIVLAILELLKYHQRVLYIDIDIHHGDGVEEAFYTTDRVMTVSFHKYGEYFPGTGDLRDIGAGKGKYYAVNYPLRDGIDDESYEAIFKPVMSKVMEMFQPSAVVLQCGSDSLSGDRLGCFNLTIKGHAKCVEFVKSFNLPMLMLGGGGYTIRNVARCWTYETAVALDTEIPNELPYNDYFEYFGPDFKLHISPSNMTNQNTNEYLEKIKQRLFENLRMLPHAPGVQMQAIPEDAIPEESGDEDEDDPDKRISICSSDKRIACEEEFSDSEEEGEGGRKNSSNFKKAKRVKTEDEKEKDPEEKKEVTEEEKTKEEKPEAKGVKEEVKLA

As a reminder, the IC50 is the concentration needed to halve the response being measured. `Nc1ccccc1NC(=O)c1ccc(CN=C2N[C@H](Cc3ccccc3)CS2)cc1`: the IC50 is 82 nM on Histone deacetylase 2; above 20000 nM in test [1]; 36 nM in test [2]; 12700 nM on Histone deacetylase 8; 410 nM on Histone deacetylase 1.

As to `Nc1ccccc1NC(=O)c1ccc(CNC2=NC(=O)C(Cc3ccccc3)N2)cc1` (racemic), the IC50 at Histone deacetylase 2 is 66 nM; in [1], above 20000 nM; with MCF7, above 50000 nM; in the test on HCT-116, 16600 nM; in the test with DU-145 it was above 50000 nM; in the test on A549, above 50000 nM. In addition, the IC50 in test [2] was found to be 30 nM; on Histone deacetylase 8, 13000 nM.

Regarding `CC(C)(C)[Si](C)(C)OCc1ccc(NC(=O)c2ccc(CNc3nccc(-c4cccnc4)n3)cc2)c(N)c1`, the IC50 (on Histone deacetylase 2; in test [1]; in test [2]; at Histone deacetylase 8) was above 20000 nM each time.

For `O=C(CCCCCCC(=O)Nc1ccccc1)NO` [VORINOSTAT], the IC50 in the test with MCF7 came to 2290 nM; in the test on A549, 2270 nM.

In the case of `Nc1ccccc1NC(=O)c1ccc(CNC2=NC[C@@H](c3ccccc3)S2)cc1`, the figures for the concentration for half-maximal inhibition (IC50) (on Histone deacetylase 2; in test [2]; on Histone deacetylase 8) were 111 nM, 23 nM and 1400 nM, respectively.

In the case of `Nc1ccccc1NC(=O)c1ccc(CSC2=N[C@@H](c3ccccc3)CS2)cc1`, the IC50 on Histone deacetylase 2 was 440 nM; in [1], above 20000 nM; in test [2], 63 nM; on Histone deacetylase 8, 5160 nM.

Take `Nc1ccccc1NC(=O)c1ccc(CN=C2N[C@H](c3ccccc3)CS2)cc1`: the half-inhibitory concentration (IC50) on Histone deacetylase 2 is 56 nM; in [1], above 20000 nM; in test [2] it was 79 nM; at Histone deacetylase 8, 10700 nM; on Histone deacetylase 1, 370 nM.

As to `Nc1cc(C(=O)OCc2ccccc2)ccc1NC(=O)c1ccc(CNc2nccc(-c3cccnc3)n2)cc1`, the IC50 (on Histone deacetylase 2; in test [1]; in [2]; on Histone deacetylase 8) was above 20000 nM each time.

As to `Nc1ccccc1NC(=O)c1ccc(CN=C2N[C@@H](c3ccccc3)[C@H](c3ccccc3)S2)cc1`, the figures for the 50% inhibitory concentration (IC50) (at Histone deacetylase 2; in [2]; on Histone deacetylase 8) were 538 nM, 388 nM and 12600 nM, respectively.

Consider `Nc1ccccc1NC(=O)c1ccc(CNC2=N[C@@H](c3ccc(O)cc3)CS2)cc1`, for which the IC50 is 44 nM on Histone deacetylase 2, 16 nM in test [2], 15000 nM at Histone deacetylase 8 and 180 nM at Histone deacetylase 1.

For the compound `Nc1cc(O)ccc1NC(=O)c1ccc(CNc2nccc(-c3cccnc3)n2)cc1`, the IC50 at Histone deacetylase 2 is 1430 nM; in [1], above 20000 nM; in [2] it was 719 nM; at Histone deacetylase 8, above 20000 nM.

On to `CC(C)(C)OC(=O)N1C(NCc2ccc(C(=O)Nc3ccccc3N)cc2)=NC(=O)C1Cc1c[nH]c2ccccc12` (racemic), for which the IC50 at Histone deacetylase 2 is 48 nM; in test [1] it was above 20000 nM; in test [2], 40 nM; at Histone deacetylase 8, 27200 nM; at Histone deacetylase 1, 500 nM.

With `Nc1ccccc1NC(=O)c1ccc(CN=C2NC[C@H](c3ccccc3)S2)cc1`, the half-inhibitory concentration (IC50) at Histone deacetylase 2 was 81 nM; in test [2], 12 nM; on Histone deacetylase 8 it was 2300 nM; at Histone deacetylase 1 it was 550 nM.

With `CC(=O)N1C(NCc2ccc(C(=O)Nc3ccccc3N)cc2)=NC(=O)C1Cc1ccccc1` (racemic), the half-maximal inhibitory concentration (IC50) at Histone deacetylase 2 is 260 nM; in test [1], above 20000 nM; in [2], 83 nM; on Histone deacetylase 8, 22700 nM.

Consider `Nc1ccccc1NC(=O)c1ccc(CNC2=NC(=O)C(Cc3c[nH]c4ccccc34)N2)cc1` (racemic), for which the concentration for half-maximal inhibition (IC50) was 78 nM on Histone deacetylase 2; above 20000 nM in test [1]; 104 nM in [2]; above 20000 nM at Histone deacetylase 8; 190 nM at Histone deacetylase 1.

On to `Nc1ccccc1NC(=O)c1ccc(CSC2=N[C@@H](Cc3c[nH]c4ccccc34)CS2)cc1`, for which the half-inhibitory concentration (IC50) at Histone deacetylase 2 was 920 nM; in test [1] it was above 20000 nM; in the test with MCF7 it was 9910 nM; with HCT-116, 3640 nM; in the test with DU-145, 2800 nM; in the test on A549, 9530 nM. For the same compound, the IC50 in test [2] was 890 nM; on Histone deacetylase 8 it was above 20000 nM.

`Nc1cc(C(=O)O)ccc1NC(=O)c1ccc(CNc2nccc(-c3cccnc3)n2)cc1`: the half-maximal inhibitory concentration (IC50) (at Histone deacetylase 2; in [1]; in [2]; at Histone deacetylase 8) was above 20000 nM each time.

With `Nc1ccccc1NC(=O)c1ccc(CSC2=N[C@@H](Cc3ccccc3)CS2)cc1`, the IC50 on Histone deacetylase 2 is 580 nM; in [1], above 20000 nM; in test [2] it was 509 nM; at Histone deacetylase 8, above 20000 nM.

As for `Nc1cc2ccccc2cc1NC(=O)c1ccc(CNc2nccc(-c3cccnc3)n2)cc1`, the IC50 at Histone deacetylase 2 is above 20000 nM; in test [1], above 20000 nM; in test [2], 630 nM; at Histone deacetylase 8, above 20000 nM.

For the compound `Nc1cc(Br)ccc1NC(=O)c1ccc(CNc2nccc(-c3cccnc3)n2)cc1`, the IC50 was above 20000 nM at Histone deacetylase 2, above 20000 nM in test [1], 4720 nM in [2] and above 20000 nM at Histone deacetylase 8.

In the case of `CC(=O)N1C(NCc2ccc(C(=O)Nc3ccccc3N)cc2)=NC(=O)C1Cc1c[nH]c2ccccc12` (racemic), the IC50 on Histone deacetylase 2 was 116 nM; in test [1] it was above 20000 nM; in test [2], 70 nM; on Histone deacetylase 8 it was 24300 nM.

On to `Nc1ccccc1NC(=O)c1ccc(CNC2=N[C@@H](Cc3ccccc3)CS2)cc1`, for which the IC50 at Histone deacetylase 2 is 104 nM; in test [1], above 20000 nM; in the test with MCF7, 3090 nM; with HCT-116, 1950 nM; with DU-145, 5450 nM; with A549 it was 6370 nM. The 50% inhibitory concentration (IC50) in test [2] was 52 nM; on Histone deacetylase 8, 34900 nM; at Histone deacetylase 1, 920 nM.

In the case of `Nc1ccccc1NC(=O)c1ccc(CNC2=N[C@H](c3ccccc3)[C@@H](c3ccccc3)S2)cc1`, the values for the IC50 (at Histone deacetylase 2; in [2]; on Histone deacetylase 8) were 425 nM, 287 nM and 14900 nM, respectively.

Regarding `Nc1cc(-c2ccccc2)ccc1NC(=O)c1ccc(CNc2nccc(-c3cccnc3)n2)cc1`, the 50% inhibitory concentration (IC50) was 16700 nM at Histone deacetylase 2, above 20000 nM in test [1], above 20000 nM in [2] and above 20000 nM on Histone deacetylase 8.

On to `COc1ccc(NC(=O)c2ccc(CNc3nccc(-c4cccnc4)n3)cc2)c(N)c1`, for which the half-inhibitory concentration (IC50) is 248 nM at Histone deacetylase 2, above 20000 nM in test [1], 111 nM in test [2] and above 20000 nM at Histone deacetylase 8.

Regarding `Nc1cc(CO)ccc1NC(=O)c1ccc(CNc2nccc(-c3cccnc3)n2)cc1`, the IC50 (at Histone deacetylase 2; in test [1]; in test [2]; on Histone deacetylase 8) was above 20000 nM in each case.

Values taken from ChEMBL document CHEMBL2407081, “Discovery of potent, isoform-selective inhibitors of histone deacetylase containing chiral heterocyclic capping groups and a N-(2-aminophenyl)benzamide binding unit” (J Med Chem, 2013).
